Test results published in patent US12060333B2 (Hoffmann-La Roche Inc., priority 2021, dated 2024).

The compounds below were run against SARS-CoV-2 3CLpro (Severe acute respiratory syndrome coronavirus 2, UniProt P0DTD1) (assay: biochemical). Details: IC50 (μM), SARS-CoV-2 3CLPro assay.

Going from `Cc1cc(C(=O)N[C@@H](CC2CCCCC2)C(=O)NN(CCC(N)=O)C(=O)C(F)Cl)no1` (mixture of isomers) [Example 74, 5-Methyl-N-[rac-(1S)-2-[2-(3-amino-3-oxo-propyl)-2-(2-chloro-2-fluoro-acetyl)hydrazino]-1-(cyclohexylmethyl)-2-axo-ethyl]isoxazole-3-carboxamide] to `Cc1cc(C(=O)N[C@@H](CC2CC2)C(=O)NN(CCC(N)=O)C(=O)C(F)Cl)no1` (mixture of isomers) [Example 75, 5-Methyl-N-[rac-(1S)-2-[2-(3-amino-3-oxo-propyl)-2-(2-chloro-2-fluoro-acetyl)hydrazino]-1-(cyclopropylmethyl)-2-axo-ethyl]isoxazole-3-carboxamide], the IC50 rises from 0.028 µM to 0.32 µM (11-fold).

First: NC(=O)CCN(NC(=O)[C@H](CC1CCCCC1)NC(=O)c1cn2ccccc2n1)C(=O)C(F)Cl (mixture of isomers) [Example 82, N-[rac-(1S)-2-[2-(3-amino-3-oxo-propyl)-2-(2-chloro-2-fluoro-acetyl)hydrazino]-1-(cyclohexylmethyl)-2-axo-ethyl]imidazo[1,2-a]pyridine-2-carboxamide]
Second: CC(C)CC(NC(=O)c1cn2ccccc2n1)C(=O)NN(CCC(N)=O)C(=O)C(F)Cl (racemic) [Example 95, N-[rac-(1S)-1-[[(3-amino-3-oxo-propyl)-(2-chloro-2-fluoro-acetyl)amino]carbamoyl]-3-methyl-butyl]imidazo[1,2-a]pyridine-2-carboxamide]
The IC50 of the first is 15-fold lower: 0.043 µM for the first, 0.65 µM for the second.

First: CC(C)C[C@H](NC(=O)c1cc2ccccc2[nH]1)C(=O)NN(CC1CCNC1=O)C(=O)CF (stereo partly drawn) [Example 38, N-[(1S)-1-[[(2-fluoroacetyl)-[(2-oxo-pyrrolidin-3-yl)methyl]amino]carbamoyl]-3-methyl-butyl]-1H-indole-2-carboxamide]
Second: CC(C)C[C@H](NC(=O)c1cc2ccccc2[nH]1)C(=O)NN(CC1CCNC1=O)C(=O)CCl (mixture of isomers) [Example 51, N-[(1S)-1-[[(2-Chloroacetyl)-[(2-oxo-pyrrolidin-3-yl)methyl]amino]carbamoyl]-3-methyl-butyl]-1H-indole-2-carboxamide]
The IC50 of the first is 72-fold higher: 0.29 µM for the first, 0.004 µM for the second.

First: COc1cccc2[nH]c(C(=O)N[C@@H](CC(C)C)C(=O)NN(CCC(N)=O)C(=O)CCl)cc12 [Example 27, 4-Methoxy-N-[(1S)-1-[[(3-amino-3-oxo-propyl)-(2-chloroacetyl)amino]carbamoyl]-3-methyl-butyl]-1H-indole-2-carboxamide]
Second: COc1cccc2[nH]c(C(=O)NC(CC(C)C)C(=O)NN(CCC(N)=O)C(=O)[C@@H](F)Cl)cc12 (mixture of isomers) [Example 54-A, 4-Methoxy-N-[rac-(1S)-1-[[(3-amino-3-oxo-propyl)-[(2S)-2-chloro-2-fluoro-acetyl]amino]carbamoyl]-3-methyl-butyl]-1H-indole-2-carboxamide]
The IC50 of the first is 1.5-fold higher: 0.006 µM for the first, 0.004 µM for the second. The second is the more potent here.

Going from `NC(=O)CCN(NC(=O)[C@H](CC12CC(C1)C2)NC(=O)c1nc2ccccc2[nH]1)C(=O)C(F)Cl` (mixture of isomers) [Example 67, N-[rac-(1S)-2-[2-(3-amino-3-oxo-propyl)-2-(2-chloro-2-fluoro-acetyl)hydrazino]-1-(1-bicyclo[1.1.1]pentanylmethyl)-2-axo-ethyl]-1H-benzimidazole-2-carboxamide] to `CC(C)C[C@H](NC(=O)c1nc2ccccc2[nH]1)C(=O)NN(CCC(N)=O)C(=O)[C@H](F)Cl` (single isomer, unassigned) [Example 63-B], the IC50 falls from 0.023 µM to 0.007 µM (3.3-fold).

Compared with `CC(C)C[C@H](NC(=O)c1nc2cc(Cl)ccc2[nH]1)C(=O)NN(CCC(N)=O)C(=O)[C@H](F)Cl` (racemic) [Example 60-B, 5-chloro-N-[rac-(1S)-1-[[(3-amino-3-oxo-propyl)-[rac-(2R)-2-chloro-2-fluoro-acetyl]amino]carbamoyl]-3-methyl-butyl]-1H-benzimidazole-2-carboxamide], `CC(C)C[C@H](NC(=O)c1cc2cc(Cl)ccc2[nH]1)C(=O)NN(CCC(N)=O)C(=O)[C@H](F)Cl` (racemic) [Example 58-B, 5-chloro-N-[rac-(1S)-1-[[(3-amino-3-oxo-propyl)-[rac-(2R)-2-chloro-2-fluoro-acetyl]amino]carbamoyl]-3-methyl-butyl]-1H-indole-2-carboxamide] is 7.4-fold lower in IC50: 0.052 µM for the first, 0.007 µM for the second.

Going from `CC(C)C[C@H](NC(=O)c1ncc[nH]1)C(=O)NN(CCC(N)=O)C(=O)C(F)Cl` (mixture of isomers) [Example 96, N-[rac-(1S)-1-[[(3-amino-3-oxo-propyl)-(2-chloro-2-fluoro-acetyl)amino]carbamoyl]-3-methyl-butyl]-1H-imidazole-2-carboxamide] to `CC(C)C[C@H](NC(=O)c1cc2cc(F)ccc2[nH]1)C(=O)NN(CCC(N)=O)C(=O)[C@H](F)Cl` (racemic) [Example 57-B, 5-fluoro-N-[rac-(1S)-1-[[(3-amino-3-oxo-propyl)-[rac-(2R)-2-chloro-2-fluoro-acetyl]amino]carbamoyl]-3-methyl-butyl]-1H-indole-2-carboxamide], the IC50 falls from 0.66 µM to 0.01 µM (66-fold).

Going from `CC(C)C[C@H](NC(=O)OCc1ccccc1)C(=O)NN(CC1CCCNC1=O)C(=O)CCl` (stereo partly drawn) [Example 20, Benzyl N-[(1S)-1-[[(2-chloroacetyl)-[(2-oxo-3-piperidyl)methyl]amino]carbamoyl]-3-methyl-butyl]carbamate] to `CC(C)C[C@H](NC(=O)OCc1ccccc1)C(=O)NN(CCC(N)=O)C(=O)[C@@H](F)Cl` (single isomer, unassigned) [Example 17-A], the IC50 rises from 0.0046 µM to 1.63 µM (350-fold). The first is the more potent here.

First: COc1cccc(NCC(=O)N[C@@H](CC(C)C)C(=O)NN(CCC(N)=O)C(=O)[C@H](F)Cl)c1 (single isomer, unassigned) [Example 83-A]
Second: CC(C)C[C@H](NC(=O)c1cc2c(Cl)cccc2[nH]1)C(=O)NN(CCC(N)=O)C(=O)[C@H](F)Cl (single isomer, unassigned) [Example 53-B]
The IC50 of the first is 36-fold higher: 0.9 µM for the first, 0.025 µM for the second.

For `CC(C)(C)C[C@H](NC(=O)c1cnccn1)C(=O)NN(CCC(N)=O)C(=O)C(F)Cl` (stereo partly drawn) [Example 78, N-[rac-(1S)-1-[[(3-amino-3-oxo-propyl)-(2-chloro-2-fluoro-acetyl)amino]carbamoyl]-3,3-dimethyl-butyl]pyrazine-2-carboxamide], the IC50 was 0.25 µM.

Same assay, conditions: read-out: IC50 (μM), SARS-CoV-2 3CLPro assay

First: NC(=O)CCN(NC(=O)[C@H](CC1CCCCC1)NC(=O)c1cc2ccccc2[nH]1)C(=O)[C@@H](F)Cl [Example 59-A, N-[(1S)-2-[2-(3-amino-3-oxo-propyl)-2-[(2S)-2-chloro-2-fluoro-acetyl]hydrazino]-1-(cyclohexylmethyl)-2-axo-ethyl]-1H-indole-2-carboxamide]
Second: NC(=O)CCN(NC(=O)[C@H](CC1CCCCC1)NC(=O)c1cc2ccccc2[nH]1)C(=O)[C@H](F)Cl [Example 59-B, N-[(1S)-2-[2-(3-amino-3-oxo-propyl)-2-[(2R)-2-chloro-2-fluoro-acetyl]hydrazino]-1-(cyclohexylmethyl)-2-axo-ethyl]-1H-indole-2-carboxamide]
The IC50 of the first is 4.6-fold higher: 0.023 µM for the first, 0.005 µM for the second.

Going from `CC(C)C[C@H](NC(=O)c1ccon1)C(=O)NN(CCC(N)=O)C(=O)CCl` [Example 43, N-[(1S)-1-[[(3-Amino-3-oxo-propyl)-(2-chloroacetyl)amino]carbamoyl]-3-methyl-butyl]isoxazole-3-carboxamide] to `CC(C)C[C@H](NC(=O)OCc1ccccc1)C(=O)NN(CCC(N)=O)C(=O)CBr` [Example 7, Benzyl N-[(1S)-1-[[(3-amino-3-oxo-propyl)-(2-bromoacetyl)amino]carbamoyl]-3-methyl-butyl]carbamate], the IC50 rises from 0.036 µM to 0.54 µM (15-fold).
